# According to patent publication US8481690B2, “Methods for detecting symmetrical dimethylarginine” (IDEXX Laboratories, Inc., priority 2008, dated 2013):
# How the values were obtained:
# Type in all cases: binding
# [1] = test system: polyclonal antibody from Rabbit No. 154; assay: Specificity determined with greater stringency, polyclonal antibody from Rabbit No. 154; conditions: Rabbit No. 154, greater stringency
# Procedure: (§1) In order to assess the specificity of the antibodies obtained by the procedures described in Example 3 above, their reactivity to SDMA, ADMA, L-arginine, and/or N-methylarginine was measured in a competitive ELISA assay (Table 1).
# (§2) ADMA-2HCl, SDMA-2HCl, N-methylarginine acetate (Sigma, Cat. No. M7033) or L-arginine (Sigma, Cat. No. A5006) were each dissolved in PBS to make stock solutions at 1 mg/ml. From these stock solutions, working solutions at 100 μg/ml, 10 μg/m and 1 μg/m were prepared in PBS.
# (§3) 50 μl of the SDMA-HRP conjugate (as described in Example 5 below), 50 μl of ADMA, SDMA, N-methylarginine or L-arginine (at concentrations from 1-100 μg/ml as described above), and 50 μl of rabbit anti-SDMA antibody in serum (1:3000 titer) were sequentially added to an individual well in a 96-well polystyrene microwell plate, precoated with sheep anti-rabbit IgG (commercially available from Beacon Analytical Systems Inc. of Portland, Me.). After a 30 minutes incubation period at room temperature, the wells were washed 4 times with PBST (Phosphate Buffered Saline, 0.05% Tween).
# (§4) 100 μl of 3,3′,5,5′-Tetramethylbenzidine (commercially available from Promega Corporation of Madison, Wis.) was subsequently added. Following a 30 minutes incubation period at room temperature, 100 μl of stop solution (1 N HCl) was added and the absorbance was measured at […] using a BioTek ELX 808 (Winooski, Vt.) plate reader. The data was subjected to quantification using Softmax software (Molecular Devices, Sunnyvale, Calif.).
# The absorbance values obtained with 0 μg/mL, 1 μg/mL, 10 μg/mL, and 100 μg/mL of ADMA, SDMA, N-methylarginine or L-arginine, respectively, were determined and plotted. […]
# In another experiment, using only polyclonal antibody from Rabbit No. 154, the specificity of the antibody was determined with greater stringency by the method described above.
# [2] = test system: rabbit anti-SDMA antibody in serum, Rabbit # 153 (SDMA conjugated with KLH immunogen); assay: Competitive ELISA, specificity of anti-SDMA antibody, Rabbit # 153; conditions: Rabbit # 153 (1:2.5K); for IC 50: competition with SDMA-HRP conjugate
# Procedure: as §1, §2
# (§5) […] After a 30 minutes incubation period at room temperature, the wells were washed 4 times with PBST (Phosphate Buffered Saline, 0.05% Tween).
# as §4
# (§6) The absorbance values obtained with 0 μg/mL, 1 μg/mL, 10 μg/mL, and 100 μg/mL of ADMA, SDMA, N-methylarginine or L-arginine, respectively, were determined and plotted. The concentration of SDMA at which the absorbance value was reduced by 50% (relative to the maximum absorbance obtained at 0 μg/mL SDMA; i.e. IC50) was divided by each of the concentrations of ADMA, N-methylarginine or L-arginine, respectively, at which the absorbance value was reduced by 50% (IC50). The resulting value was multiplied by 100 to obtain the value “% cross-reactivity”.
# [3] = test system: rabbit anti-SDMA antibody in serum, Rabbit # 155 (SDMA conjugated with BSA immunogen); assay: Competitive ELISA, specificity of anti-SDMA antibody, Rabbit # 155; conditions: Rabbit # 155 (1:3K); for IC 50: competition with SDMA-HRP conjugate
# Procedure: as §1, §2, §3, §4, §6
# [4] = test system: rabbit anti-SDMA antibody in serum, Rabbit # 156 (SDMA conjugated with BSA immunogen); assay: Competitive ELISA, specificity of anti-SDMA antibody, Rabbit # 156; conditions: Rabbit # 156 (1:20K); for IC 50: competition with SDMA-HRP conjugate
# Procedure: as §1, §2, §5, §4, §6
# [5] = test system: rabbit anti-SDMA antibody in serum, Rabbit # 154 (SDMA conjugated with KLH immunogen); assay: Competitive ELISA, specificity of anti-SDMA antibody, Rabbit # 154; conditions: Rabbit # 154 (1.25K); for IC 50: competition with SDMA-HRP conjugate
# Procedure: as §1, §2, §5, §4, §6
# [6] = test system: rabbit anti-SDMA antibody in serum, Rabbit # 157 (SDMA conjugated with BSA immunogen); assay: Competitive ELISA, specificity of anti-SDMA antibody, Rabbit # 157; conditions: Rabbit # 157 (1:15K); for IC 50: competition with SDMA-HRP conjugate
# Procedure: as §1, §2, §5, §4, §6
# [7] = test system: rabbit anti-SDMA antibody in serum, Rabbit # 152 (SDMA conjugated with KLH immunogen); assay: Competitive ELISA, specificity of anti-SDMA antibody, Rabbit # 152; conditions: Rabbit # 152 (1:5K); for % Cross Reactivity: IC50 of SDMA divided by IC50 of competitor x 100; for IC 50: competition with SDMA-HRP conjugate, absorbance reduced by 50%
# Procedure: as §1, §2, §5, §4, §6
IC 50 [2],IC 50 [3],IC 50 [4],IC 50 [5],IC 50 [6],IC 50 [7],Compound,Specificity (Cross-Reactivity) [1],% Cross Reactivity [2],% Cross Reactivity [3],% Cross Reactivity [4],% Cross Reactivity [5],% Cross Reactivity [6],% Cross Reactivity [7]
>100 µg/mL,>100 µg/mL,>100 µg/mL,>100 µg/mL,>100 µg/mL,>100 µg/mL,"CN(C)C(=N)NCCCC(N)C(=O)O (stereo not drawn) [ADMA, asymmetrical dimethylarginine]",<0.2%,<1%,<1%,<1%,<1%,<1%,<1%
>100 µg/mL,79 µg/mL,>100 µg/mL,>100 µg/mL,>100 µg/mL,>100 µg/mL,"CNC(=N)NCCCC(N)C(=O)O (stereo not drawn) [N-MMA, N-monomethylarginine]",,<1%,<1%,<1%,<1%,<1%,<1%
0.65 µg/mL,0.73 µg/mL,1.3 µg/mL,0.49 µg/mL,1.6 µg/mL,1.10 µg/mL,"C/N=C(\NC)NCCCC(N)C(=O)O (stereo not drawn) [SDMA, symmetrical dimethylarginine]",100%,100%,100%,100%,100%,100%,100%

Compound,IC 50 [2],IC 50 [3],IC 50 [4],IC 50 [5],IC 50 [6],IC 50 [7],Specificity (Cross-Reactivity) [1],% Cross Reactivity [2],% Cross Reactivity [3],% Cross Reactivity [4],% Cross Reactivity [5],% Cross Reactivity [6],% Cross Reactivity [7]
"N=C(N)NCCC[C@H](N)C(=O)O [L-Arginine, arginine]",>100 µg/mL,>100 µg/mL,>100 µg/mL,>100 µg/mL,>100 µg/mL,>100 µg/mL,<0.01%,<1%,<1%,<1%,<1%,<1%,<1%
